Measurements taken from US20230272012A1, “PEPTIDES AND METHODS OF USE” (REALTA LIFE SCIENCES, INC., priority 2020, published 2023).
Bridge positions count the residues as written; N and C are the ends. Square brackets hold non-standard residues; d marks the D form. Peptide text beside a SMILES is read from it. R8 = C=CCCCCCC[C@@](C)(N)C(=O)O; S5 = C=CCCC[C@](C)(N)C(=O)O; Sar = CNCC(=O)O

Test: Total Antioxidant Capacity (TAC) assay
Settings: highest peptide concentration 1.5 mM
Description: As previously reported, the TAC (Total Antioxidant Capacity) Assay (Cell Biolabs, Inc, San Diego, Calif.) was used to measure the antioxidant capacity of the PIC1 variants based on the reduction of copper (II) to copper (I). The kit protocol was performed per the manufacturer's recommendations.
The antioxidant properties for the PIC1 variants were evaluated in a Total Antioxidant Capacity (TAC) assay, as previously reported. Total antioxidant activity over a range of peptide concentrations were determined for the stapled and the D-amino acid peptides based on the PA-I8Sar and PA-C9Sar backbones (FIG. 8A-8D), with the activity of the highest peptide concentration reported (1.5 mM) (FIGS. 4A and B, respectively). […] For the D-amino acid variants, there was variation in the amount of antioxidant activity with the peptides having similar, slightly lower and slightly higher levels of total antioxidant capacity. In contrast, stapled peptides (PA-0135 through -0140) as well as combination of stapled and D-amino acid peptides had reduced total antioxidant capacity (FIG. 4A).

For `CC[C@H](C)[C@H](N)C(=O)N[C@]1(C)CCCCCCC=CCCC[C@@](C)(C(=O)N[C@@H](CS)C(=O)N[C@@H](CCC(N)=O)C(=O)N[C@@H](CCC(=O)O)C(=O)N[C@@H](CCCNC(=N)N)C(=O)N[C@@H](C)C(=O)N[C@@H](C)C(=O)O)NC(=O)CN(C)C(=O)[C@@H]2CCCN2C(=O)[C@H](CCC(=O)O)NC(=O)[C@H](CC(C)C)NC(=O)[C@H]([C@@H](C)CC)NC(=O)[C@H](CC(C)C)NC1=O` [PA-0115, IR8LILEP(Sar)S5CQERAA] (H-I[R8]LILEP[Sar][S5]CQERAA-OH; staple 2-9), the “total antioxidant capacity compared with PA-I8Sar” value was “much less antioxidant activity” and the “total antioxidant capacity compared with PA-I8Sar” value (listed as PA-0015) was “reduction in total antioxidant capacity”.
